Test system: panel of 50 SH2 domains
Test: SPOT peptide array probed with each of 50 GST-SH2 domains
Assay type: binding
Settings: SPOT192 peptide array; for SH2 Domains >3X: list of GST-SH2 domains with spot intensity >3X array mean (array-positive); for 2X < SH2 Domains < 3X: list of GST-SH2 domains with spot intensity between 2X and 3X array mean (indeterminate range)
Summary of the method: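 Each GST-fused SH2 domain was overlaid on 192 membrane-synthesized pTyr peptides (11-mers, 4 N-terminal and 6 C-terminal flanking residues) and read with anti-GST and near-infrared secondary antibodies. Binding called relative to membrane mean intensity (>3× positive, <1× negative); GST-only probes defined nonspecific peptides.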

Row | Substance | SH2 Domains >3X | 2X < SH2 Domains < 3X
1 | WMEDpYDYVHLQ [H12] | BCAR3, BMX, BRK, CRK, CRKL, DAPP1, FER, GRB7, ITK, MATK, NCK1, PI3K1_N, PLCG2_N, RASA1_N, RASA1_C, RIN1, SH3BP2, TENC1 | ABL1, BLK, FYN, HCK, LCK, LYN, PLCG2_C, SH2D1B, SHB, SHC1, SHIP1, SRC
2 | WRGDpYGGKKQL [H04] | BCAR3, BRDG1, BRK, DAPP1, FER, MIST, RIN1, TENC1 | BMX, ITK, PLCG2_N, Sh2b, SH3BP2, SHF, SHD, SYK_C
3 | WYPHpYFVLTSS [G24] | ABL2, CRK, CRKL, ITK, MATK, MIST, PI3K1_C, PTPN11_C, SH2D1B, SHD, SHIP1, ZAP70_N | BCAR3, GRB7, SHC1
4 | YELPpYNPATDD [H22] | SLNK | 
5 | YETDpYYRKGGK [B01] | BCAR3, BMX, BRDG1, BRK, ITK, PLCG2_N, RIN1, TENC1 | FER, MIST, PTPN11_C, SH2D2A, SHB, SHF, SHD, SHE, SYK_C
6 | YGALpYEGRNPG [H02] |  | SH3BP2, ZAP70_N
7 | YKAPpYTAGGDS [D22] | MIST | 
8 | YPEDpYGDIEIG [D17] | BMX, BRK, FGR, SLNK, SRC | BLK, FER, FYN, HCK, GRB7, ITK, LCK, LYN, RASA1_N, SH2D1B, SHC1, YES
9 | YVTDpYLDVPSN [A16] | SLNK | BRK, RASA1_N
10 | YWDLpYEHAQQQ [H18] | ABL1, BCAR3, BMX, FER, ITK, MATK, RASA1_N, RASA1_C, SH3BP2, SHB, TENC1 | CRKL

Source: article PMC3514216, “SRC Homology 2 Domain Binding Sites in Insulin, IGF-1 and FGF receptor mediated signaling networks reveal an extensive potential interactome” (Cell Communication and Signaling : CCS, 2012)
